Assay results from publication PMC1810525, “Antagonism of the prostaglandin D2 receptor CRTH2 attenuates asthma pathology in mouse eosinophilic airway inflammation” (Respiratory Research, 2007).

How the values were obtained:
iNOS = iNOS (Homo sapiens, UniProt P35228); test: Profiling panel, enzymatic assay iNOS; type: biochemical; settings: 10 μM
Experimental: (§2) All assays were performed using recombinant human receptors and enzymes, and included the appropriate controls for assay validation. Enzymatic and binding assays, except for muscarinic binding, were performed by CEREP in vitro pharmacology profiling services. […] For stimulation of C3a, C5a, and ChemR23 receptors in InsP assays the following agonists were used: human recombinant C3a (C3a receptor), human recombinant C5a (C5a receptor), and the nonapeptide Chemerin (ChemR23).

BLT1 = BLT1 (Homo sapiens, UniProt Q15722); test: Profiling panel, radioligand binding BLT1; settings: 10 μM
Experimental: as §2

DP = settings: cited from earlier work
C3a = target: T1, C3a (Homo sapiens, UniProt Q16581); test: Profiling panel, functional InsP C3a receptor; type: cell-based; settings: 10 μM
T1 sequence (Q16581 1-482): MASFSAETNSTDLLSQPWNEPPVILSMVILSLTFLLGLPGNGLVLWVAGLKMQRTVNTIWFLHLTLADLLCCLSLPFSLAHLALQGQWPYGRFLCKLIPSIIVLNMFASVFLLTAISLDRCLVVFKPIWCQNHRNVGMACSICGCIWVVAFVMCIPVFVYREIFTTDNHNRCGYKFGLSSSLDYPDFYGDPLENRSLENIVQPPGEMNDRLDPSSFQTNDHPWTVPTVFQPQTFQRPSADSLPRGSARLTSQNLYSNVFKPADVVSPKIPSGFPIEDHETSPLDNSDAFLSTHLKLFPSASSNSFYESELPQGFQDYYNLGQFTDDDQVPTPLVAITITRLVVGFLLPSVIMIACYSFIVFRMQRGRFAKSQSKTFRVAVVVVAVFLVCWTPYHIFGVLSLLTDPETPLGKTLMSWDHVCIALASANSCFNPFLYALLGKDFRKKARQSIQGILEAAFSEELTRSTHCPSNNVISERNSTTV

C5a = target: T2, C5a (Homo sapiens, UniProt P21730); test: Profiling panel, C5a receptor; settings: 10 μM, assay type B (binding) per table
T2 sequence (P21730 1-350): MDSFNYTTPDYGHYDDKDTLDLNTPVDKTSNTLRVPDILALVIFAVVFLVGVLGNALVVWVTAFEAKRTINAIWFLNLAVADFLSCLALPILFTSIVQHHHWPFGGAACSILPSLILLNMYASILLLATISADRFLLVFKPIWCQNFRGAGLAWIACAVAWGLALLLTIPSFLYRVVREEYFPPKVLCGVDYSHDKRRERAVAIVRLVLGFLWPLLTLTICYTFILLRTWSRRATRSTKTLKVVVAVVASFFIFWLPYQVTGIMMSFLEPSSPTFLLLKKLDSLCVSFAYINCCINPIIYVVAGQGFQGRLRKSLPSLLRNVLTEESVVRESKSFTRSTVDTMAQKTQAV
Experimental: as §2

CysLT1 = target: T3, CysLT1 (Homo sapiens, UniProt Q9Y271); test: Profiling panel, radioligand binding CysLT1; settings: 10 μM
T3 sequence (Q9Y271 1-337): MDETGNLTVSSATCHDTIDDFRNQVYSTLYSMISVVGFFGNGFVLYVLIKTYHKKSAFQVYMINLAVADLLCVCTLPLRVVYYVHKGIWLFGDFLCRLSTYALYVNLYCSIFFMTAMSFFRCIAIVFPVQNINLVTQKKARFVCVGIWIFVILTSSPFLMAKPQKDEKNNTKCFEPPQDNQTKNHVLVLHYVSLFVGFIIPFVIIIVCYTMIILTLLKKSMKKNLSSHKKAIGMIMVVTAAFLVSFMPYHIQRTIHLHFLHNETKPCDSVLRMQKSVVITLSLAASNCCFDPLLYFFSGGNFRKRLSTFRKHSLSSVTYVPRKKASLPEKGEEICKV
Experimental: as §2

ChemR23 = target: T4, ChemR23 (Homo sapiens, UniProt Q99788); test: Profiling panel, functional InsP ChemR23; type: cell-based; settings: 10 μM
T4 sequence (Q99788 1-373): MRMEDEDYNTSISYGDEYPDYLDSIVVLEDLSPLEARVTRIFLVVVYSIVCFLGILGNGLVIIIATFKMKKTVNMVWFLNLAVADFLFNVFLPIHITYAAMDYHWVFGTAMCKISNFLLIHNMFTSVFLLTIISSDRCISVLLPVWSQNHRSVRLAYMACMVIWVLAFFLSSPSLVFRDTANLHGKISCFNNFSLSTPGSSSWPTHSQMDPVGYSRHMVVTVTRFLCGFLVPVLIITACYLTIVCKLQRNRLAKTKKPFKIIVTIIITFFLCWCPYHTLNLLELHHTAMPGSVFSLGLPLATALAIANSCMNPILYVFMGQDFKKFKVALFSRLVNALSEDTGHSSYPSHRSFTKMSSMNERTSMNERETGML

[1] = test system: Muscarinic (non-selective); settings: 10 μM, binding, mouse brain homogenate
Experimental: (§1) TM30089 was tested at a final concentration of 10 μM in either binding or functional assays on several 7TM receptors, and in enzymatic assays on selected enzymes including those involved in arachidonic acid metabolism. All assays were performed using recombinant human receptors and enzymes, and included the appropriate controls for assay validation. Enzymatic and binding assays, except for muscarinic binding, were performed by CEREP in vitro pharmacology profiling services. Full description of methods and references is available on the CEREP Web site. […] Functional assays were performed using recombinant human receptors and enzymes, and included the appropriate controls for C3a, C5a, ChemR23 receptors by determining the inhibitory potency of TM30089 in InsP assays essentially as described above. For stimulation of C3a, C5a, and ChemR23 receptors in InsP assays the following agonists were used: human recombinant C3a (C3a receptor), human recombinant C5a (C5a receptor), and the nonapeptide Chemerin (ChemR23).

Phospholipase A2 = settings: 10 μM, enzymatic
Experimental: as §1

[2] = target: Muscarinic (M2-selective) (Sus scrofa, UniProt P06199); settings: 10 μM, binding, porcine heart membranes
Experimental: as §1

CXCR2 = target: T5, CXCR2 (Homo sapiens, UniProt P25025); test: Profiling panel, radioligand binding CXCR2; settings: 10 μM
T5 sequence (P25025 1-360): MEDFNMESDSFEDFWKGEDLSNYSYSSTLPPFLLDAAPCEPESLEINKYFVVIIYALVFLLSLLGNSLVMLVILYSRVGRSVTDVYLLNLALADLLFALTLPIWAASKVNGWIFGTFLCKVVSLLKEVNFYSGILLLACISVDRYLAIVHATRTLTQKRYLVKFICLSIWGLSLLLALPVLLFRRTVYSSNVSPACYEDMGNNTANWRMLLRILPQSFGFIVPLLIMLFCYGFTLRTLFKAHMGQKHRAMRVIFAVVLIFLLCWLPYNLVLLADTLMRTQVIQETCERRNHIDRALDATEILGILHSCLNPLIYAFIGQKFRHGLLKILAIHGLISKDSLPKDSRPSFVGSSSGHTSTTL
Experimental: as §2

COX1 = COX1 (Homo sapiens, UniProt P23219); test: Profiling panel, enzymatic assay COX1; type: biochemical; settings: 10 μM
Experimental: as §2

mCRTH2 = target: mCRTH2; design: method as in PMID 15563582; settings: obtained by others in the same expression system; read-out: reported Ki value mCRTH2; cited from earlier work

Chain of Muscarinic (M2-selective) (P06199 whole entry): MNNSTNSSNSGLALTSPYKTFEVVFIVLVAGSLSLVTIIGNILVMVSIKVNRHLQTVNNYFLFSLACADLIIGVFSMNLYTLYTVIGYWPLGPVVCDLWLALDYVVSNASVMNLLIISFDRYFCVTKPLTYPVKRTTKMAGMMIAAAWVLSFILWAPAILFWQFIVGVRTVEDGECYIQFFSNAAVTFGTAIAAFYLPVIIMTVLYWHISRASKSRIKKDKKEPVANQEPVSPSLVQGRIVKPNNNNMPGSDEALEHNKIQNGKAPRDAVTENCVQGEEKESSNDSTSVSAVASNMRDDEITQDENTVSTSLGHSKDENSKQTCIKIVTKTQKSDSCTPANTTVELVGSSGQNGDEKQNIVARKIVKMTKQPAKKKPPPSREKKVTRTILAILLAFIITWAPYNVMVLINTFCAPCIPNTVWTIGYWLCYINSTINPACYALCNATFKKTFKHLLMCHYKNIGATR
Chain of BLT1 (Q15722 whole entry): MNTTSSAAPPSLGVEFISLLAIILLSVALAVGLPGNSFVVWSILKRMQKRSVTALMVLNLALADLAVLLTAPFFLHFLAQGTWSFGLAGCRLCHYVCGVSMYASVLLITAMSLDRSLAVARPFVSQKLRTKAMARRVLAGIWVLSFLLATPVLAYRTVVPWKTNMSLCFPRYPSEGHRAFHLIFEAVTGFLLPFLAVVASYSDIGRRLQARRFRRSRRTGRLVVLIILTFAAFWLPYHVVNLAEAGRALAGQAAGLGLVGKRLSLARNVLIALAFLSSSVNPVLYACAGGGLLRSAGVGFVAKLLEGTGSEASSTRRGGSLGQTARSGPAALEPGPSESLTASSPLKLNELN
Chain of COX1 (P23219 24-599): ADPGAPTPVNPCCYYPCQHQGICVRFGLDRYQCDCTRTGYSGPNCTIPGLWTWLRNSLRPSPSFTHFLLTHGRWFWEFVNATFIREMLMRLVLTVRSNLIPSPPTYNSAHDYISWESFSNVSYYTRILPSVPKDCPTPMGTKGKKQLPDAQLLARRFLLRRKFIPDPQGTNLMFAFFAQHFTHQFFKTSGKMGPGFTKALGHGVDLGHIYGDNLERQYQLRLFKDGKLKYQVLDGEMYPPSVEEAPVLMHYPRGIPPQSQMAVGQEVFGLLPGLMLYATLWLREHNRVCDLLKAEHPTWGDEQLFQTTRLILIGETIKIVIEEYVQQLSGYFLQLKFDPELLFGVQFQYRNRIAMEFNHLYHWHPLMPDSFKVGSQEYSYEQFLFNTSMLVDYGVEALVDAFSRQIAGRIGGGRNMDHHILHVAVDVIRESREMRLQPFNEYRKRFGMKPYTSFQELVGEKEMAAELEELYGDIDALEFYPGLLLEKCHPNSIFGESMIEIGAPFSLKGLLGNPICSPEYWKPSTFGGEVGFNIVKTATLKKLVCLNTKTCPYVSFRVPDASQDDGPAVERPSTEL

Compound | % of control iNOS (iNOS) | % of control BLT1 (BLT1) | preference for CRTH2 over DP (DP) | % of control C3a (C3a) | % of control C5a (C5a) | % of control CysLT1 (CysLT1) | % of control ChemR23 (ChemR23) | % of control Muscarinic (non-selective) [1] | % of control Phospholipase A2 (Phospholipase A2) | % of control Muscarinic (M2-selective) [2] | % of control CXCR2 (CXCR2) | % of control COX1 (COX1) | Ki (mCRTH2)
CN(C1CCc2c(c3ccccc3n2CC(=O)O)C1)S(=O)(=O)c1ccc(F)cc1 (stereo not shown) [TM30089] | 102.3 ± 3.6% | 89.3 ± 3.5% | > 1000 fold | 88.7 ± 5.9% | 108.7 ± 6.3% | 116.9 ± 10.5% | 96.6 ± 1.6% | 106.7 ± 8.5% | 101.5 ± 1.0% | 97.5 ± 1.9% | 104.6 ± 6.1% | 109.6 ± 3.6% | 
O=C(O)CCn1c2c(c3ccccc31)C[C@H](NS(=O)(=O)c1ccc(F)cc1)CC2 [ramatroban, reference compound] |  |  |  |  |  |  |  |  |  |  |  |  | 28 nM
